# In publication PMC10067442, “In vivo quantitative high-throughput screening for drug discovery and comparative toxicology” (Disease Models & Mechanisms, 2023):
# Tests used:
# [1] = tested on: C. elegans strain PE254; assay: 384-well LSC C. elegans viability assay, life-stage sorted worms on BGs or OP50 live bacteria (assay development); type: in vivo, Caenorhabditis elegans
# [2] = tested on: C. elegans strain PE254; assay: C. elegans LSC qHTS viability assay, Anti-Infectives library primary screen (BG-fed, 384-well); type: in vivo, Caenorhabditis elegans
# Description: Levamisole, ivermectin and albendazole were purchased from Sigma-Aldrich. Stock solutions of all compounds were prepared at 10 mM in DMSO, and ivermectin was diluted to a 10 µM working dilution in DMSO. […] Of these, 284 (38%) are approved for clinical use in the United States, 32 (4%) were previously marketed for use in the United States, and 62 (8%) are used clinically outside of the United States. […] DMSO stock solutions of were arrayed in Echo-qualified 384-well cyclic olefin copolymer plates (Labcyte) in qHTS inter-plate dilution with seven concentrations, 1:5 dilution, resulting in a final concentration range of 2.5–20 mM high concentration titrated to 160 nM to 1.28 µM low concentration ([Yasgar et al., 2008]). ‘Assay-ready’ plates were prepared in 384-well uClear microtiter plates (Greiner BioOne), with compounds acoustically dispensed at 250 nl per well with an Echo 555 in the above inter-plate titration array. Two plates with DMSO added across the compound field at the same volume were prepared as screening controls (‘uniformity plates’). DMSO vehicle control was added to every well of column 1, and levamisole cytotoxicity control was added at a high concentration of 10 mM in wells 1–8 and titrated 1:3, starting at a high concentration of 10 mM to 4.57 µM in wells 9–16 of column 2 of every plate. Additionally, ivermectin, levamisol and albendazole were plated as internal controls on one assay plate in 16-point, 1:2 titration down six replicate columns per compound, starting at a high concentration of 10 µM (ivermectin) or 10 mM (levamisole and albendazole). Assay-ready plates were sealed and frozen at −80°C until use.
# C. elegans strain PE254 were collected from 12 NGM plates as above, transferred to 250 ml S medium supplemented with OP50 E. coli pellet collected from 2 l overnight culture, and grown for 5 days at 21°C with vigorous shaking in an Incu-Shaker Mini Shaking Incubator (Benchmark Scientific, Inc.). Eggs were axenized as above and hatched overnight in M9 buffer at 21°C and shaken at 65 rpm. Assay ready plates were thawed and allowed to equilibrate to ambient temperature. BGs in S medium (30 µl/well) at an OD600=0.85 were manually added across plates with a Capp pipette. Synchronized L1 worms from above were collected, diluted and plated at ten worms/30 µl/well with a Capp pipette into assay-ready microtiter plates pre-plated with BGs and compounds (240-fold dilution). […] No ethical approval or guidance is needed for working with nematodes.
# Data from the Anti-Infectives screen were normalized by plate to corresponding intra-plate controls as previously described ([Inglese et al., 2006]). Assay statistics were calculated using the same respective controls. Total object ‘GFP’ area (µm^2) and number of worms were normalized to the average signal of DMSO-treated wells as zero percent neutral control, and the average signal of 41.7 µM levamisole-treated wells as −100% activity. In-house software was used to fit the resulting inter-plate titration data to the standard Hill equation, and concentration–response curves were classified by activity as previously described ([Southall et al., 2009]). Curve fits assignments of −1.1, −1.2, −2.1, −2.2 and −3 were considered active and visually confirmed.
# [3] = tested on: C. elegans; set-up: method as in Sant'anna et al., 2013; settings: all life stages, post 7-day treatment; ref Sant'anna et al., 2013; read-out: EC50 (toxic); cited from earlier work
# [4] = tested on: C. elegans; settings: total GFP area, days 3 and 7 post chemical exposure
# [5] = tested on: HEK293 cells; assay: HEK293 cell viability (CellTiter-Glo, ATP levels); type: cell-based; settings: Homo sapiens, 24 h post-treatment, screening control, 14 replicate wells
# Description: Mammalian cell toxicity was evaluated in HEK293 cells (ATCC) using ATP levels as an indicator of metabolically active cells. Assays were performed in 1536-well plates (Greiner white/solid bottom, high base), and luminescence measurements were made on a ViewLux (Perkin Elmer) ([Martinez et al., 2021]; [Solinski et al., 2019]). Assay-ready plates in 1536-well format were prepared as above using the 384-well Echo-compatible source plates; 25 nl of a seven-point titration with 1:5 dilution starting at a high concentration of 2.5–20 mM of compound was added to respective wells with an Echo 555 acoustic dispenser. A titration of digitonin, 20 mM to 610 nM in DMSO (83.3 µM to 2.5 nM final assay concentration), was used as an intraplate cell toxicity control titration. DMSO vehicle and 83.3 μM digitonin final concentration (64 or 32 replicate wells per assay plate, respectively) were used to establish the assay signal window. Plates were stored at −80°C until use and equilibrated to ambient temperature prior to cell dispense. Then, 1500 cells were added at 6 μl assay volume/well (240-fold dilution) across plates with a Multidrop Combi dispenser (Thermo Fisher Scientific) in standard Dulbecco's modified Eagle medium. Cell viability-dependent luminescence levels were read following the addition of 4 μl CellTiter-Glo (Promega) after 24 h incubation with the test compound.
# [6] = tested on: C. elegans strain PE254; assay: Follow-up 11-point re-test, C. elegans LSC viability; type: in vivo, Caenorhabditis elegans; settings: day 7, screening control in re-test, 4 replicate wells
# Description: C. elegans strain PE254 were collected from six NGM plates and washed. […] Assay-ready plates were prepared as above with an 11-point, 1:3 titration of 96 compounds identified as active from the qHTS screen based on curve classification and maximum response. […] Data were normalized as above, and concentration–response curves were fit in Prism with nonlinear regression log(agonist) versus response–variable slope (four parameters) fit.
smiles,measurement,setting,value
CCCSc1ccc2nc(NC(=O)OC)[nH]c2c1 [Albendazole],toxicity (in words),"[1]; worms grown on BGs, as early as day 1 for L4 and adult worms, by day 2 for most life stages",significant toxicity
same,EC50,"[2]; Caenorhabditis elegans, 72 h, read-out: Treatment day, EC50 (GFP area)",0.2 ± 0.3 µM
same,EC50,"[2]; Caenorhabditis elegans, 96 h, read-out: Treatment day, EC50 (GFP area)",0.8 ± 0.7 µM
same,EC50,"[2]; Caenorhabditis elegans, 120 h, read-out: Treatment day, EC50 (GFP area)",0.9 ± 0.4 µM
same,EC50,"[2]; Caenorhabditis elegans, 144 h, read-out: Treatment day, EC50 (GFP area)",0.8 ± 0.4 µM
same,EC50,"[2]; Caenorhabditis elegans, 168 h, read-out: Treatment day, EC50 (GFP area)",1.1 ± 0.6 µM
same,EC50,[3],> 10 µM
"CCOCn1c(-c2ccc(Cl)cc2)c(C#N)c(Br)c1C(F)(F)F [Chlorfenapyr, chlorfenapyr]",activity in Tox21 sub-library C. elegans qHTS (in words),[4],identified
"Clc1ccc(C(c2ccc(Cl)cc2)C(Cl)(Cl)Cl)cc1 [DDT, dichlorodiphenyltrichloroethane]",activity in Tox21 sub-library C. elegans qHTS (in words),[4],potent activity
"C[C@@H]1CC[C@@]2(OC1)O[C@H]1[C@@H](O)[C@H]3[C@@H]4CC[C@H]5C[C@@H](O[C@@H]6O[C@H](CO)[C@H](O[C@@H]7O[C@H](CO)[C@@H](O)[C@H](O[C@@H]8OC[C@@H](O)[C@H](O)[C@H]8O)[C@H]7O[C@@H]7O[C@H](CO)[C@H](O)[C@H](O[C@@H]8O[C@H](CO)[C@@H](O)[C@H](O)[C@H]8O)[C@H]7O)[C@H](O)[C@H]6O)[C@H](O)C[C@]5(C)[C@H]4CC[C@]3(C)[C@H]1[C@@H]2C [Digitonin, digitonin]",EC50,[5],31.3 µM
c1ccc([C@H]2CN3CCSC3=N2)cc1 [Levamisole],EC50,[6]; read-out: EC50 using #worms,2.45 µM
same,EC50,[6]; read-out: EC50 using GFP area,2.23 µM
same,EC50 values (in words),"[1]; all life stages, both media (BGs and live bacteria), 7-day time course",low-micromolar range
same,EC50,"[2]; day 3, intra-plate screening control, averaged from 21 replicates, normalized to 41.7 μM levamisole, read-out: EC50 (GFP area)",9.37 ± 0.93 µM
same,EC50,"[2]; day 3, intra-plate screening control, averaged from 21 replicates, read-out: EC50 (number of worms)",5.96 ± 2.4 µM
same,EC50,"[2]; day 7, intra-plate screening control, averaged from 21 replicates, read-out: EC50 (GFP area)",7.99 ± 1.44 µM
same,EC50,"[2]; day 7, intra-plate screening control, averaged from 21 replicates, read-out: EC50 (number of worms)",5.74 ± 0.91 µM
same,activity on C. elegans viability in primary qHTS (in words),"[2]; seven-point titration, GFP area",active
same,EC50,"[2]; treatment day 2, internal control, 16-point titration, six replicate wells, read-out: Treatment day, EC50 (GFP area)",12.7 ± 4.7 µM
same,EC50,"[2]; treatment day 3, internal control, 16-point titration, six replicate wells, read-out: Treatment day, EC50 (GFP area)",14 ± 5.5 µM
same,EC50,"[2]; treatment day 4, internal control, 16-point titration, six replicate wells, read-out: Treatment day, EC50 (GFP area)",5.6 ± 1.5 µM
same,EC50,"[2]; treatment day 5, internal control, 16-point titration, six replicate wells, read-out: Treatment day, EC50 (GFP area)",5.3 ± 0.6 µM
same,EC50,"[2]; treatment day 6, internal control, 16-point titration, six replicate wells, read-out: Treatment day, EC50 (GFP area)",4.9 ± 0.4 µM
same,EC50,"[2]; treatment day 7, internal control, 16-point titration, six replicate wells, read-out: Treatment day, EC50 (GFP area)",5 ± 0.8 µM
